US20220280499A1, “NOVEL DRUG COMBINATIONS FOR TREATMENT OF A CARCINOMA” (Stichting Het Nederlands Kanker Instituue-Antoni van …, priority 2019, published 2022)

Experiments:
SNU449 cells = test: EGFR shRNA knockdown with lenvatinib, proliferation; assay type: cell-based, human; conditions: SNU449 cells with EGFR shRNA vectors, about 10 days
Experimental: FIG. 1. […] Cell growth was assessed by a colony formation assay. […] Viability was assessed by CellTiter-Blue assays. (c) The level of EGFR knockdown was determined by western blot for three independent shRNAs. HSP90 protein level served as a loading control.
After this, genomic DNA was isolated from both treated and untreated cells, and the relative abundance of gRNA was determined by next generation sequencing of the bar code contained in each gRNA vector in three biological replicates as described (Evers et al., 2016. Nat Biotechnol 34: 631-3).

EGFR = test: western blot with phospho-protein-specific antibodies, EGFR activation; assay type: cell-based, human; conditions: three EGFR-high liver cancer cell lines
Experimental: (§1) FIG. 3. […] Activation of EGFR and ERK1/2 was analyzed. HSP90 served as a control.

ERK1/2 = test: western blot with phospho-protein-specific antibodies, ERK1/2 activation; assay type: cell-based, human; conditions: three EGFR-high liver cancer cell lines
Experimental: as §1

SNU449 xenograft = conditions: nude mice, lenvatinib 4 mg/kg, gefitinib 80 mg/kg, about 27 days
FGFR2 = FGFR2 (Homo sapiens, UniProt P21802); conditions: cited from earlier work
Sequence of FGFR2 (P21802 22-821, species assumed): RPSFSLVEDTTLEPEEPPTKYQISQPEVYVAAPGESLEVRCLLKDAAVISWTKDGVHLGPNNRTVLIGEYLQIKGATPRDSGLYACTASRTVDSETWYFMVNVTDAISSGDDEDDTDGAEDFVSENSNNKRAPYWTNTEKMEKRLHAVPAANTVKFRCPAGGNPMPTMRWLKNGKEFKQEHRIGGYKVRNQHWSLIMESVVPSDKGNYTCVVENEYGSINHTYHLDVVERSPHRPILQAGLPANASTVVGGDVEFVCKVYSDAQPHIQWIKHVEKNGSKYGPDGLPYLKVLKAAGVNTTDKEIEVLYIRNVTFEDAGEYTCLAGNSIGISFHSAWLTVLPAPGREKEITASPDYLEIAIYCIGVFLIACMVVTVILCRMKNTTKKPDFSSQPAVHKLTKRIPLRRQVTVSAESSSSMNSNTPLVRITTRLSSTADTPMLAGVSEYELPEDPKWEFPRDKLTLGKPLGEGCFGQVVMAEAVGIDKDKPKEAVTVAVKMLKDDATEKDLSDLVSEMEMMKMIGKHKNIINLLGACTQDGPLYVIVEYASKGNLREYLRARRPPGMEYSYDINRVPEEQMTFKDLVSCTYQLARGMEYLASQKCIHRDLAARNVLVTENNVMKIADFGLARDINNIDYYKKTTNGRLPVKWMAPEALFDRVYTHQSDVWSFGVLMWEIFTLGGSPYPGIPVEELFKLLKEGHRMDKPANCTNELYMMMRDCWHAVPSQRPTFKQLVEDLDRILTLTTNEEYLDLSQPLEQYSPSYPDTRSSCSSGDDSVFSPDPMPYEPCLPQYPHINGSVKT

VEGFR family = conditions: cited from earlier work
advanced HCC = conditions: first-line treatment of advanced HCC; cited from earlier work
advanced HCC patients = conditions: clinical trials; cited from earlier work

Row | SMILES | proliferation with suppression of EGFR (shRNA) in combination (SNU449 cells) | Tyr 1068 phosphorylation of EGFR (activation of the receptor) (EGFR) | phosphorylation (activation) of ERK1/2 (ERK1/2) | tumor growth / antitumor effect (SNU449 xenograft) | Ki (FGFR2) [nM] | Ki (VEGFR family) [nM] | overall survival (advanced HCC) [months] | improvement of survival compared to placebo (advanced HCC patients)
1 | COc1cc2nccc(Oc3ccc(NC(=O)NC4CC4)c(Cl)c3)c2cc1C(N)=O [lenvatinib, 4-[3-chloro-4-(cyclopropylcarbamoylamino)phenoxy]-7-methoxyquinoline-6-carboxamide] | marked inhibition of proliferation | strong increase | strong increase | little antitumor effect | 8.21 | 1 | 13.6 | –
2 | COc1cc2ncnc(Nc3ccc(F)c(Cl)c3)c2cc1OCCCN1CCOCC1 [gefitinib, N-(3-chloro-4-fluorophenyl)-7-methoxy-6-(3-morpholin-4-ylpropoxy)quinazolin-4-amine] | – | – | – | little antitumor effect | – | – | – | –
3 | CNC(=O)c1cc(Oc2ccc(NC(=O)Nc3ccc(Cl)c(C(F)(F)F)c3)cc2)ccn1 [sorafenib, 4-[4-[[4-chloro-3-(trifluoromethyl)phenyl]carbamoylamino]phenoxy]-N-methylpyridine-2-carboxamide] | – | – | – | – | – | – | 12.3 | less than 3 months
